Where a name gives a salt, the structure may show the parent alone.
Biological target: T1, β-adrenergic receptors (Cavia porcellus, UniProt H0W3H1)
T1 construct: The ventricles and adipose tissue were carefully cut away to leave the atria as an intact pair; from tissue; host or cells: isolated guinea pig atria (intact pair)
Experiment: Inhibition of isoproterenol-induced enhancement of the rate of contraction of guinea pig atrial pairs in vitro (KB as β-antagonist)
Format: cell-based
Conditions: guinea pig atria, versus isoproterenol, KB from dose ratio of isoproterenol EC50, 37° C., read-out: receptor dissociation constant (KB) as a β-antagonist
Description: The β-blocking activity of the compounds of structure (I) can be assessed in a test for inhibition of isoproterenol-induced enhancement of the rate of contraction of guinea pig atrial pairs in vitro.
Inhibition of isoproterenol-induced enhancement of constricted guinea pig atria
A guinea pig (500-700 g) was injected with sodium pentobarbital (50 mg/kg, ip). When anesthetized, the heart was removed and placed in cold (5°-10° C.), oxygenated Krebs-Hensleit solution. The ventricles and adipose tissue were carefully cut away to leave the atria as an intact pair. A thread was tied to the apex of each atrium and the tissue suspended in a 50 ml tissue bath, attached to a force-displacement transducer. A diastolic tension of 1 g was maintained. Atrial contraction rate was measured using biotachometer, driven by the transducer amplifier.
A 30 minute stabilization period was allowed before obtaining the first dose response curve, during which time the tissue was washed several times with fresh solution. A concentration-response curve to isoprotererol was then determined, increasing agonist concentrations when the rate response to the previous dose had stabilized. After this determination, any β-antagonist activity of the test compound was measured via a concentration-response curve. […]

T1 sequence (H0W3H1 1-470): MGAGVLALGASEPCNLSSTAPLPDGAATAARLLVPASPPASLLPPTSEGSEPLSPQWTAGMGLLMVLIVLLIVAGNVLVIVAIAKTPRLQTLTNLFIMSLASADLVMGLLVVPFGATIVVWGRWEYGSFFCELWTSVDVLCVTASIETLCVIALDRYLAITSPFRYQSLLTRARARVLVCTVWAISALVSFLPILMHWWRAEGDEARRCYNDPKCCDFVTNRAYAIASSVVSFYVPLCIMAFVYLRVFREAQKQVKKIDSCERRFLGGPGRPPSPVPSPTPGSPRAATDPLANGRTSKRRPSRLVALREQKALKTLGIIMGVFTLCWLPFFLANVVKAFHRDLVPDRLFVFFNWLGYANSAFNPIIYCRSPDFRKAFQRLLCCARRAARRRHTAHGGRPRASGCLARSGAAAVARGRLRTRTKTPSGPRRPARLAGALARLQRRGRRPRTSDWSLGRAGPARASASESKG

Kb: 67 nM
SMILES: COc1cc(CC2NCCc3cc(Cl)c(Cl)cc32)cc(OC)c1OC (stereo not shown) [Example 1, 6,7-dichloro-1-(3,4,5-trimethoxybenzyl)-1,2,3,4-tetrahydroisoquinoline fumarate]

Source: patent publication US4707485A, “Substituted te[1]trahydroisoquinoline derivatives having β-adrenergic receptor activity” (Smithkline Beckman Corporation, priority 1985, dated 1987)
